Assay results as given in US9540299B2, “MTOR-independent activator of TFEB for autophagy enhancement and uses thereof” (Hong Kong Baptist University, priority 2015, dated 2017).

Test system: MTOR pathway
Assay: Effects on MTOR pathway: phosphorylation by western blot in N2a cells
Assay type: cell-based, mouse
Conditions: for phosphorylation of RPS6KB1/p70S6K, MTOR and AKT: 12 h, curcumin 10 μM, analogs 1 μM; for phosphorylation of RPS6KB1/p70S6K and MTOR: 12 hours
Description: N2a cells were treated with curcumin (Cur, 10 μM), A2, B3 and C1 (1 μM) for 12 h. Torin 1 (1 μM) treatment for 2 h was used as a positive control. […] FIG. 3B is a bar chart showing the expression of phosphorylated (p−) and total RPS6KB1/P70S6K, MTOR and AKT. Data are presented as the mean±SD from three independent experiments. *p<0.05 vs. the control (0.1% DMSO).
N2a cells are treated with E2, E3 and E4 (1 μM) for 12 hours. Torin 1 (1 μM) treatment for 2 hours is used as a positive control. The expression of phosphorylated (p−) and total RPS6KB1/P70S6K and MTOR are shown in Western blotting (FIG. 15A). The phosphorylation of RPS6KB1 and MTOR levels are also quantified (FIG. 15B). Data are presented as the mean±SD from three independent experiments. *p<0.05 vs. the control (0.1% DMSO).
N2a cells are treated with different concentrations of E4 (0-1 μM) and Torin 1 (1 μM) for 6 hours. The expression of phosphorylated (p−) and MTOR are detected by Western blotting (FIG. 23A). The phosphorylation of MTOR levels are also quantified (FIG. 23B). Data are presented as the mean±SD from three independent experiments. *p<0.05 vs. the control (0.1% DMSO).
N2a cells are treated with E4 (1 μM) for indicated times and Torin 1 (1 μM) for 6 hours. The expression of phosphorylated (p−) and total RPS6KB1/P70S6K and MTOR are detected by Western blotting (FIG. 24A). The phosphorylation of RPS6KB1 and MTOR levels are also quantified (FIG. 24B). Data are presented as the mean±SD from three independent experiments. *p<0.05 vs. the control (0.1% DMSO).
N2a, Hela and Hela cells stably expressing 3×-Flag-TFEB are cultured in DMEM supplemented with 10% FBS. SH-SY5Y cells are cultured in DMEM/F12 supplemented with 10% FBS. For drug treatment, the full medium is replaced by fresh Opti-MEM I and then the compounds (in 0.1% DMSO) are added to the cells and incubated for 12 h. Inducible PC12 cells overexpressing SNCA (WT and A53T) (a kind gift from Prof. David C. Rubinsztein at Cambridge University) are grown in DMEM supplemented with 10% horse serum, 5% FBS, 50 μg/ml G418, and 150 μg/ml hygromycin B at 37° C., 10% CO2. Cells are treated with 2 μg/ml doxycycline (Dox) for 24 h to induce SNCA expression. The full medium is changed to Opti-MEM I containing the testing compounds for another 48 h.
Cells are lysed on ice in 1× Lysis Buffer (9803, Life Technologies) with complete protease inhibitor mixture (04693124001, Roche Applied Science). Animal tissues are homogenized in nine volumes of ice-cold PBS supplemented with protease inhibitors. Cytosolic and nuclear fractions are isolated using protocols similar to those described previously. Anti-Flag or TFEB antibody is added to the whole cell lysates and Dynabeads® Protein G (10003D, Life Technologies) is used for immunoprecipitation. Proteins are separated by 10-15% SDS-PAGE, transferred, and blotted with the antibodies described. The blots are then incubated with secondary antibodies or the Clean-Blot IP Detection Reagent (21230, Thermo Scientific) at room temperature for 1 h. The protein signals are detected by ECL kit (32106, Pierce) and quantified using ImageJ software.
N2a and HeLa cells are cultured in DMEM supplemented with 10% FBS. HeLa cells stably expressing 3×-Flag-TFEB are maintained in DMEM supplemented with 10% FBS and 500 μg/mL G418. For drug treatment, the full medium is replaced by fresh Opti-MEM I containing the compounds (in 0.1% DMSO) and incubated for the indicated time periods.
Cells are lysed on ice in 1× Lysis Buffer (9803, Life Technologies) with complete protease inhibitor mixture (04693124001, Roche Applied Science) and phosphatase inhibitor (B15001, Biotool). Cytosolic and nuclear fractions are isolated using protocols similar to those described previously. Proteins are separated by 10-15% SDS-PAGE, transferred, and blotted with the antibodies described. The blots are then incubated with primary and secondary antibodies. […]

Structure (SMILES)	phosphorylation of RPS6KB1/p70S6K, MTOR and AKT	phosphorylation of RPS6KB1/p70S6K and MTOR (1 μM)	further results
O=C(/C=C/c1cccc(C(F)(F)F)c1)/C=C/c1cccc(C(F)(F)F)c1 [A2, 1,5-bis(3-(trifluoromethyl)phenyl)penta-1,4-dien-3-one]	inhibit	–	–
O=C(/C=C/c1ccc(O)cc1)/C=C/c1ccc(O)cc1 [B3, 1,5-bis(4-hydroxyphenyl)penta-1,4-dien-3-one]	inhibit	–	–
COc1ccccc1/C=C/C(=O)/C=C/c1ccccc1OC [C1, 1,5-bis(2-methoxyphenyl)penta-1,4-dien-3-one]	significantly promotes	–	–
O=C(/C=C/c1ccccc1Cl)/C=C/c1ccccc1Cl [E2]	–	significantly inhibit	–
O=C(/C=C/c1ccccc1Br)/C=C/c1ccccc1Br [E3]	–	significantly inhibit	–
O=C(/C=C/c1ccccc1I)/C=C/c1ccccc1I [E4]	–	significantly inhibit	phosphorylation of MTOR, dose-dependent (0-1 μM, 6 hours, dose-dependent manner): significantly inhibits; phosphorylation of both MTOR and p70S6K, time-dependent (1 μM, 0-6 hours, time-dependent manner): inhibits
COc1cc(/C=C/C(=O)CC(=O)/C=C/c2ccc(O)c(OC)c2)ccc1O [curcumin, Curcumin, reference compound]	inhibit	–	–
